Measured values published in patent US6133039A, “In vivo method for determination of oxidative stress” (Washinton University, priority 2000, dated 2000).
Each block holds one molecule with its values, some of them ahead of it.

What was measured:
[1] = 3-nitrotyrosine given to animals; Tabrizi-Fard et al.; cited from earlier work
[2] = Reverse-phase HPLC analysis of urine of animals injected intravenously with o,o'-[^14 C]dityrosine; type: in vivo, mice; settings: urine after intravenous injection
Experimental: Urine collected from animals injected with [^14 C]dityrosine was subjected to reverse-phase HPLC analysis with monitoring of radioactivity by scintillation spectroscopy.
o,o'-[^14 C]Dityrosine (2×10^5 cpm) was injected into the animals intravenously. Plasma was centrifuged (400×g for 20 min at 4° C.) from blood collected by retro-orbital bleeding. Tissue samples were collected from animals killed by cervical dislocation, weighed and then homogenized in deionized water. Radioactivity in tissue homogenates, plasma, and urine was determined by liquid scintillation spectroscopy (Beckman LS 3801) with correction for quenching. [^14 C]Dityrosine was prepared from L-[^14 C]tyrosine (American Radiolabeled Chemicals Co.; St. Louis, Mo.) and o,o'-[^13 C12 ]dityrosine was prepared from L-[^13 C6 ]tyrosine (Cambridge Isotope Inc.; Andover, Mass.) using horseradish peroxidase (Boehringer Mannheim Biochemicals; Indianapolis, Ind.) and H2 O2 (Fisher Scientific Co.; Pittsburgh, Pa.) and isolated by reverse-phase HPLC; (27). o,o'-[^14 C]Dityrosine and radiolabeled material in urine were analyzed by HPLC (27) using a reverse-phase column (ODS ultrasphere, 250 mm×4.6 mm, particle size 5 μm.; Beckman,) and a flow rate of 1 ml/min. The column was equilibrated with 100% solvent A (1% acetic acid in water). […] Radioactivity in each HPLC fraction was quantified by liquid scintillation spectroscopy.

[3] = Metabolic fate of radiolabeled dityrosine injected intravenously into mice (blood, tissue and urine radioactivity); type: in vivo
Experimental: Mice were injected with 2×10^5 cpm of [^14 C]dityrosine. FIG. 3A: Blood was collected at the indicated times by retro-orbital bleeding. FIG. 3B: Animals were sacrificed at the indicated times after injection of [^14 C]dityrosine. Recovery of radiolabeled material in tissues and urine was quantified by scintillation spectroscopy.
o,o'-[^14 C]Dityrosine (2×10^5 cpm) was injected into the animals intravenously. Plasma was centrifuged (400×g for 20 min at 4° C.) from blood collected by retro-orbital bleeding. Tissue samples were collected from animals killed by cervical dislocation, weighed and then homogenized in deionized water. Radioactivity in tissue homogenates, plasma, and urine was determined by liquid scintillation spectroscopy (Beckman LS 3801) with correction for quenching. [^14 C]Dityrosine was prepared from L-[^14 C]tyrosine (American Radiolabeled Chemicals Co.; St. Louis, Mo.) and o,o'-[^13 C12 ]dityrosine was prepared from L-[^13 C6 ]tyrosine (Cambridge Isotope Inc.; Andover, Mass.) using horseradish peroxidase (Boehringer Mannheim Biochemicals; Indianapolis, Ind.) and H2 O2 (Fisher Scientific Co.; Pittsburgh, Pa.) and isolated by reverse-phase HPLC; (27). o,o'-[^14 C]Dityrosine and radiolabeled material in urine were analyzed by HPLC (27) using a reverse-phase column (ODS ultrasphere, 250 mm×4.6 mm, particle size 5 μm.; Beckman,) and a flow rate of 1 ml/min. The column was equilibrated with 100% solvent A (1% acetic acid in water). Compounds were eluted with a discontinuous gradient of solvent B (1% acetic acid in methanol). The gradient was 0%-10% solvent B over 10 min, 10% solvent B for 4 min, 10%-100% solvent B over 5 min and 100% solvent B for 10 min. Prior to HPLC analysis, urinary amino acids were isolated by solid-phase extraction as outlined above. Recovery of radiolabeled material from urine subjected to this procedure was>90%. Radioactivity in each HPLC fraction was quantified by liquid scintillation spectroscopy.

[4] = tested on: peritoneal phagocytes of wild-type mice; assay: Protein-bound o,o'-dityrosine in peritoneal leukocytes activated in vivo with zymosan, isotope dilution GC/MS; set-up: species or system mice (C57BL/6J)
Experimental: (§1) Thioglycolate-elicited peritoneal inflammatory cells were activated in vivo with zymosan. FIG. 2A: At the indicated time (n=3 animals) or FIG. 2B: 3 h after injection of zymosan, protein-bound o,o'-dityrosine in cellular proteins was quantified by isotope dilution GC/MS.
(§2) The animal studies committee of Washington University School of Medicine in St. Louis approved all protocols. The C57BL/6J mice used for these experiments were obtained from Jackson Laboratories (Bar Harbor, […].) and bred and maintained under pathogen-free conditions. Impaired O2^.cndot.- by phorbol ester-stimulated neutrophils isolated from CGD mice deficient in gp91 phox (13) was confirmed by monitoring the superoxide dimutase inhibitable reduction of ferricytochrome c (10). Mice were fed rodent diet 5001 (Harlan-Teklad, Madison, Wis.). Between ages 9 and 11 weeks, the mice were injected with one ml of 4% thioglycollate to recruit leukocytes into the peritoneum. The leukocytes were activated 20 hours (h) later by intraperitoneal injection of zymosan (250 mg/kg). Control animals were injected with one ml of buffer A (138 mM NaCl, 3 mM KCl, 0.1 M sodium phosphate, pH 7.4). Prior to and every 2 h during urine collection, the animals were injected intraperitoneally with 2 ml of buffer A.
Animals were killed by decapitation after metophane-induced anesthesia. After the abdominal wall was washed with 95% ethanol, leukocytes were harvested from the peritoneum using a siliconized glass pipette. The peritoneum was lavaged 3 times with 4 ml of ice-cold Hanks' Balanced Salt Solution (HBSS) containing 100 μM DTPA. Cells were suspended in ice-cold HBSS, collected by low speed centrifugation, and stored at -80° C. until analysis. […]
(§3) Amino acids were converted to their n-propyl esters, heptafluorobutyryl derivatives and quantified by isotope dilution gas chromatography/mass spectrometry (GC/MS) with selected ion monitoring (20,21). […] The ions monitored were: L-tyrosine, m/z 417 and 595; L-[^13 C6 ]tyrosine, m/z 423 and 601; o,o'-dityrosine, m/z 1030 and 1208; o,o'-[^13 C12 ]dityrosine, m/z 1042 and 1220.

peritoneal phagocytes = assay: Recruitment of peritoneal cells by thioglycollate; type: in vivo, mice
Source text: as §2
Animals were killed by decapitation after metophane-induced anesthesia. After the abdominal wall was washed with 95% ethanol, leukocytes were harvested from the peritoneum using a siliconized glass pipette. The peritoneum was lavaged 3 times with 4 ml of ice-cold Hanks' Balanced Salt Solution (HBSS) containing 100 μM DTPA. Cells were suspended in ice-cold HBSS, collected by low speed centrifugation, and stored at -80° C. until analysis.
To determine whether white blood cells oxidatively damage proteins in vivo, isotope dilution GC/MS was used to quantify levels of o,o'-dityrosine in mouse peritoneal phagocytes. To recruit neutrophils into the peritoneum, the animals were injected with thioglycollate, a chemical irritant. Twenty hours after this first injection, the animals were given an intraperitoneal injection of zymosan, which stimulates phagocytes to produce H2 O2 and secrete myeloperoxidase into the phagolysosome (6). Thioglycollate-injected mice typically yielded 20-40×10^6 peritoneal cells. Neutrophils, mononuclear cells, and eosinophils represented 67±4%, 30±4%, and<1% of the harvested phagocytes (n=6 animals).

[5] = tested on: peritoneal phagocytes of CGD mice; assay: Protein-bound o,o'-dityrosine in peritoneal phagocytes, isotope dilution GC/MS, CGD mice; type: in vivo; settings: 3 hours of zymosan stimulation, mice deficient in NADPH oxidase
Experimental: as §1
as §2, with “The leukocytes were activated 20 hours (h) later by intraperitoneal injection of zymosan (250 mg/kg). Control animals were injected with one ml of buffer A (138 mM NaCl, 3 mM KCl, 0.1 M sodium phosphate, pH 7.4). Prior to and every 2 h during urine collection, the animals were injected intraperitoneally with 2 ml of buffer A.” left out
as §3

Molecule: N[C@@H](Cc1ccc(O)c([N+](=O)[O-])c1)C(=O)O [3-nitrotyrosine]
- amount excreted into urine [1]: Minimal amounts

- radioactivity in urine co-migrating with authentic o,o'-[^14 C]dityrosine [2]: More than 80%
- radiolabeled material lost from the blood ([3]; 5 min after intravenous injection): more than 50%
- radioactivity recovered in the urine ([3]; 1 h after intravenous injection): Thirty
- radioactivity recovered in the urine ([3]; 3 h after intravenous injection): 65%
- radioactivity recovered in the urine ([3]; 4 h after intravenous injection): 81%
- radiolabeled material in blood, liver, spleen, and heart ([3]; after intravenous injection): essentially undetectable
- radiolabeled material present in kidney ([3]; after intravenous injection): < 5%
- apparent half-life in the blood (slower phase) ([3]; intravenous): ~ 30 min
- clearance kinetics from the blood ([3]; intravenous): biphasic kinetics
Molecule: N[C@@H](Cc1ccc(O)c(-c2cc(C[C@H](N)C(=O)O)ccc2O)c1)C(=O)O [o,o'-[^14 C]dityrosine]

- recovery of radioactive material in the urine (in words) ([3]; between 3 h and 4 h after intravenous injection): recovered almost quantitatively
Molecule: NC(Cc1ccc(O)c(-c2cc(CC(N)C(=O)O)ccc2O)c1)C(=O)O (centres unmarked) [o,o'-dityrosine]
- o,o'-dityrosine content of resident thioglycollate-elicited neutrophils ([4]; before zymosan): ~ 50 μmol per mol tyrosine

Molecule: thioglycollate
- eosinophils among harvested phagocytes (peritoneal phagocytes; n=6 animals): < 1%
- mononuclear cells among harvested phagocytes (peritoneal phagocytes; n=6 animals): 30±4%
- neutrophils among harvested phagocytes (peritoneal phagocytes; n=6 animals): 67±4%
- peritoneal cells yielded (peritoneal phagocytes; thioglycollate-injected mice): 20-40 ×10^6 peritoneal cells

Molecule: zymosan
- time of peak of protein-bound o,o'-dityrosine ([4]; after zymosan injection): 3 h
- increase of o,o'-dityrosine in cellular proteins ([4]; neutrophils exposed to zymosan in vivo): 4 fold
- o,o'-dityrosine in phagocyte proteins [5]: undetectable
- increase in protein-bound dityrosine ([5]; p<0.0005): completely abrogated
